{"source": "patent US20240306641A1", "about": "“P-BOOSTER” (EUROCHEM ANTWERPEN, priority 2021, published 2024)", "assay_type_in_all_cases": "in vivo", "key": {"[1]": {"system": "Arabidopsis thaliana Columbia-0", "assay": "Arabidopsis pot experiment (rosette size, soil phosphate, anthocyanin)", "description": "Regular Arabidopsis, soybean and maize pot experiments used an unfertilized potting soil, which was supplemented at the start of the experiment with 50 ml H2O containing 0.25 g/l NH4NO3 and 0.44 g/l (high phosphate) or no (maize and soybean) or 0.11 g/l KH2PO (Arabidopsis) for low phosphate conditions. For the sand-based maize pot experiment, sand was supplemented with 50 ml H2O containing 0.25 g/l NH4NO3 and 0.38 g/l (high phosphate) or 0.02 g/l (low phosphate) KH2PO4. Potassium was balanced via addition of KCl. Compound concentration was 10 μM, calculated based on the total water content after watering, and was added at the start of the experiment (Arabidopsis) or once a week (maize). Indexed chlorophyll contents were received via a SPAD 502 Plus Chlorophyll Meter. All parameters in the sand experiment, except the rate of leaf 4 (measured the first 4 days after emergence), were measured 19 days after sowing. Measurements in the pot experiments with potting soil were done after 4 weeks of growth, except for leaf 5, which was measured at 26 days. The long term maize pot experiment was performed on the automated Phenovision platform (see Mertens et al, 2021, https://doi.org/10.3389/fpls.2021.640914) with maize cultivars B104 and DKC2931. End point measurements occurred after 90 days (B104) or 70 days (DKC2931). Plants were grown on an unfertilized potting soil, which was fertilized bi-weekly with 50 mL modified Hoagland solution (2.5× concentrated; but with 0.25 mM KH2PO4). Col-0 ecotype Arabidopsis seeds were sown in 96-well plates containing 150 μl of low phosphate modMS liquid medium containing 1% of sucrose. Compounds was added in 50 μM concentration (1% DMSO). 7 days after germination, plates were scanned using a flatbed scanner (EPSON Expression 11000XL) and wells containing non-germinated seedlings were excluded from the following analysis. Plants were removed from each well and 50 μl of medium was recovered from each well and used for molybdenum blue staining as described in Plant Physiology 2008, 146:1673-1686. To measure the phosphate level in soil, Olsen P extraction was used on 1 g of air dried soil, 500 ul of extract was used for molybdenum blue staining as described in The Plant cell 2013, 25:1641-1656. Values were expressed relative to the low phosphate control. Col-0 ecotype Arabidopsis seeds were sown in 96-well plates containing 150 μl of low phosphate modMS liquid medium containing 1% of sucrose. […] Extraction and quantification of anthocyanin levels was carried out according to The Plant cell 2013, 25:1641-1656. Anthocyanin levels were quantified by measuring absorption at 530 and 657 nm using a spectrophotometer and normalized to fresh weight input, and expressed relative to the low phosphate control. […]"}, "[2]": {"system": "Arabidopsis thaliana Columbia-0", "assay": "Arabidopsis horizontal plate leaf area assay", "description": "(§1) All Arabidopsis plant experiments were performed using the Arabidopsis thaliana Columbia-0 background. The Arabidopsis pSPX1::GUS line is described in the […] 2008, 54: 965-975. For rice, the cultivar Nipponbare was used. For maize, the cultivars DKC 2931 and 8104 were used for regular pot experiments and sand-based pot experiments, respectively. For soybean, the cultivar Primus was used. […] The medium was solidified due to the addition of 0.6% Gelrite, unless stated otherwise. In case of vertical plates (root length and root hair measurements), the medium was supplied with 0.5% of sucrose and 1 μM (low phosphate, 1 μM KH2PO4, 9.9 mM KCl), 10 μM (low phosphate 10 μM KH2PO4, 9.9 mM KCl) or 1.25 mM KH2PO4 (high phosphate). Arabidopsis seeds were stratified for 2 days at 4° C. before germination. Seedlings were germinated in climate-controlled growth chambers at 22° C. under continuous light ([…] m^−2 s^−1). Husked rice seeds were germinated on wetted Whatman paper for 2 days at 37° C. and then transferred to Sterivent boxes or square Petri dishes with solid medium. Maize and soybean seeds were wetted 24 hours at room temperature prior to sowing in pots.\nArabidopsis primary root growth experiments were done on MS1/2 on vertical standing plates and roots were measured 11 days after germination. Roots were imaged using a flatbed scanner (EPSON Expression 11000XL) and root length was measured using ImageJ software. Arabidopsis shoot biomass was determined in 11 days after germination and growth on vertical standing plates with modMS. Arabidopsis leaf area was measured 21 days after germination on horizontal plates with modMS medium. Plates were scanned from the top using a flatbed scanner (EPSON Expression 11000XL) and the visible leaf area was measured using ImageJ software. Rice plate experiments used vertically standing Petri dishes containing MS1/2 medium (low phosphate—0.001 mM) solidified with 0.8% washed agar. Plant height was measured 11 days after germination. Rice box experiments used modMS medium and a low phosphate condition of 0.025 mM phosphate. Plant height was measured 13 days after germination. All growth experiments occurred with 10 μM of compound and in low phosphate conditions, unless stated otherwise. Controls always received the same DMSO concentration."}, "[3]": {"system": "soybean cultivar Primus", "assay": "Soybean pot experiment", "settings": "low phosphate, 4 weeks", "description": "All Arabidopsis plant experiments were performed using the Arabidopsis thaliana Columbia-0 background. The Arabidopsis pSPX1::GUS line is described in the […] 2008, 54: 965-975. For rice, the cultivar Nipponbare was used. For maize, the cultivars DKC 2931 and 8104 were used for regular pot experiments and sand-based pot experiments, respectively. For soybean, the cultivar Primus was used. […] The medium was solidified due to the addition of 0.6% Gelrite, unless stated otherwise. […]\nRegular Arabidopsis, soybean and maize pot experiments used an unfertilized potting soil, which was supplemented at the start of the experiment with 50 ml H2O containing 0.25 g/l NH4NO3 and 0.44 g/l (high phosphate) or no (maize and soybean) or 0.11 g/l KH2PO (Arabidopsis) for low phosphate conditions. […] Compound concentration was 10 μM, calculated based on the total water content after watering, and was added at the start of the experiment (Arabidopsis) or once a week (maize). […] All parameters in the sand experiment, except the rate of leaf 4 (measured the first 4 days after emergence), were measured 19 days after sowing. Measurements in the pot experiments with potting soil were done after 4 weeks of growth, except for leaf 5, which was measured at 26 days. […]"}, "[4]": {"system": "maize cultivar 8104", "assay": "Sand-based maize pot experiment", "settings": "low phosphate, 10 μM compound", "description": "as §1\nRegular Arabidopsis, soybean and maize pot experiments used an unfertilized potting soil, which was supplemented at the start of the experiment with 50 ml H2O containing 0.25 g/l NH4NO3 and 0.44 g/l (high phosphate) or no (maize and soybean) or 0.11 g/l KH2PO (Arabidopsis) for low phosphate conditions. For the sand-based maize pot experiment, sand was supplemented with 50 ml H2O containing 0.25 g/l NH4NO3 and 0.38 g/l (high phosphate) or 0.02 g/l (low phosphate) KH2PO4. Potassium was balanced via addition of KCl. Compound concentration was 10 μM, calculated based on the total water content after watering, and was added at the start of the experiment (Arabidopsis) or once a week (maize). Indexed chlorophyll contents were received via a SPAD 502 Plus Chlorophyll Meter. All parameters in the sand experiment, except the rate of leaf 4 (measured the first 4 days after emergence), were measured 19 days after sowing. Measurements in the pot experiments with potting soil were done after 4 weeks of growth, except for leaf 5, which was measured at 26 days. The long term maize pot experiment was performed on the automated Phenovision platform (see Mertens et al, 2021, https://doi.org/10.3389/fpls.2021.640914) with maize cultivars B104 and DKC2931. End point measurements occurred after 90 days (B104) or 70 days (DKC2931). Plants were grown on an unfertilized potting soil, which was fertilized bi-weekly with 50 mL modified Hoagland solution (2.5× concentrated; but with 0.25 mM KH2PO4)."}}, "data": [{"smiles": "CCN(CCCNc1ncnc2nc(N)ccc12)c1ccccc1", "note": "[Example 1]", "values": [{"measurement": "Relative anthocyanin level", "setting": "[1]; Arabidopsis pot, 4-week old plant, relative to low phosphate control (=1)", "value": 0.7}, {"measurement": "Phosphate level in soil (relative value)", "setting": "[1]; Arabidopsis pot, Olsen P, after 4 weeks, relative to low phosphate control (=1)", "value": 0.8}, {"measurement": "Rosette size", "setting": "[1]; Arabidopsis pot, low phosphate, 10 μM compound, 4 weeks", "value": 17, "unit": "cm^2"}, {"measurement": "Anthocyanin level in the leaves (in words)", "setting": "[1]; plants grown in pots", "value": "reduced"}, {"measurement": "Leaf area", "setting": "[2]; Arabidopsis horizontal plate, low phosphate, 10 μM compound, 21 days after germination (Table 1)", "value": 94, "unit": "mm^2"}, {"measurement": "Leaf area in suboptimal phosphate conditions", "setting": "[2]; Arabidopsis horizontal plate, suboptimal phosphate (600 μM), 10 μM compound", "value": 120, "unit": "mm^2"}, {"measurement": "Average leaf area", "setting": "[2]; Arabidopsis horizontal plates (Table 4), control without compound 63", "value": 66, "unit": "mm^2"}, {"measurement": "Biomass", "setting": "[3]", "value": 4.4, "unit": "g"}, {"measurement": "Plant height", "setting": "[3]", "value": 63, "unit": "cm"}, {"measurement": "Crown root number", "setting": "[4]; 19 days after sowing", "value": 8}, {"measurement": "Plant height", "setting": "[4]; 19 days after sowing", "value": 27, "unit": "cm"}, {"measurement": "Indexed chlorophyll content", "setting": "[4]; SPAD meter, 19 days after sowing", "value": 31}, {"measurement": "Growth rate of leaf 4", "setting": "[4]; first 4 days after emergence", "value": 2.64, "unit": "cm/day"}]}]}
